Results on nine molecules are retold here after PubChem BioAssay (NCI).

Values joined by “and” are separate entries in the source; they are usually repeats but may differ in a detail not shown here. Equal entries are not always repeated.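 Growth conditions: 96-well plates. Treatment: test compound, 48 hours, 5 concentrations. Analysis: linear interpolation between bracketing concentrations; unreached endpoints set to highest concentration. The concentration for 50% growth inhibition is given as GI50. TGI is the concentration that stops growth completely.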 Some results are limits rather than exact numbers.

Some test systems named below: COLO 205 colon; EKVX NSCLC; HCC-2998 colon; IGROV1 ovarian; K-562 leukemia; NCI-H226 lung; NCI-H23 lung; NCI-H460 lung; RPMI-8226 leukemia; SF-539 CNS; SNB-75 CNS; TK-10 renal; UACC-257 melanoma; UACC-62 melanoma; UO-31 renal; DU-145 prostate.
Common to all, as to assay: inhibition of tumour cell growth, NCI panel, 48 h

Take `O=C(O)c1ccc(C2COc3ccc(Cl)cc3C2)cc1` (stereo not given): the TGI in the experiment on COLO 205 colon, in the experiment on EKVX NSCLC, in the experiment on HCC-2998 colon, in the experiment with IGROV1 ovarian, in the experiment on K-562 leukemia and in the experiment on NCI-H226 lung was more than 100 µM throughout. The TGI with NCI-H23 lung, in the experiment with NCI-H460 lung, in the experiment with RPMI-8226 leukemia, in the experiment on SF-539 CNS, with SNB-75 CNS and in the experiment with TK-10 renal was more than 100 µM in each case. Besides, the TGI with UACC-257 melanoma, with UACC-62 melanoma and with UO-31 renal was more than 100 µM in each case.

On to `COc1ccc2c(c1)C(=O)C1CC(=O)CCC21` (stereo not given), for which the TGI in the experiment with COLO 205 colon, with EKVX NSCLC, in the experiment on HCC-2998 colon, in the experiment with IGROV1 ovarian, in the experiment on K-562 leukemia and with NCI-H226 lung was more than 100 µM throughout. Also, the TGI in the experiment with NCI-H23 lung, in the experiment with NCI-H460 lung, with RPMI-8226 leukemia, with SF-539 CNS, in the experiment with SNB-75 CNS and with TK-10 renal was more than 100 µM each time. Further, the TGI in the experiment with UACC-257 melanoma, in the experiment with UACC-62 melanoma and in the experiment with UO-31 renal was more than 100 µM throughout.

In the case of `COC(=O)[C@@H]1CC(C(C[N+](=O)[O-])c2ccc(O[Si](C)(C)C(C)(C)C)cc2)C(=O)N1C(=O)OC(C)(C)C` (stereo not given in full), the GI50 in the experiment on COLO 205 colon is > 100 µM and 26.2 µM; in the experiment with NCI-H226 lung it was 12.6 µM and 35 µM; with RPMI-8226 leukemia, 3.2 µM and 23.7 µM. The TGI in the experiment on COLO 205 colon, with DU-145 prostate, in the experiment on EKVX NSCLC, in the experiment with IGROV1 ovarian, in the experiment on K-562 leukemia and in the experiment on NCI-H226 lung was more than 100 µM in each case. The TGI was 72.4 µM and 95 µM in the experiment with RPMI-8226 leukemia; more than 100 µM in the experiment with SF-539 CNS; more than 100 µM in the experiment on SNB-75 CNS; more than 100 µM in the experiment on TK-10 renal; more than 100 µM in the experiment with UACC-257 melanoma; more than 100 µM in the experiment with UO-31 renal.

As to `CC(=O)NC(CCCNC(=O)N(CCCl)N=O)C(=O)NCc1ccccc1` (stereo not given), the TGI in the experiment with COLO 205 colon, in the experiment with EKVX NSCLC, in the experiment on HCC-2998 colon, with IGROV1 ovarian, in the experiment on K-562 leukemia and in the experiment with NCI-H226 lung was more than 100 µM throughout. Besides, the TGI was more than 100 µM in the experiment with NCI-H23 lung; more than 100 µM in the experiment with NCI-H460 lung; more than 100 µM with RPMI-8226 leukemia; 69.6 µM in the experiment on SF-539 CNS; more than 100 µM in the experiment on SNB-75 CNS; more than 100 µM in the experiment with TK-10 renal. Moreover, the TGI in the experiment on UACC-257 melanoma, in the experiment with UACC-62 melanoma and in the experiment on UO-31 renal was more than 100 µM throughout.

As to `C/C=C1\CN2CCc3c([nH]c4ccccc34)C2CC1C(=O)OC` (stereo not given), the TGI in the experiment with COLO 205 colon, in the experiment on EKVX NSCLC, in the experiment with HCC-2998 colon, in the experiment with IGROV1 ovarian, with K-562 leukemia and in the experiment with NCI-H226 lung was more than 322 µM each time. Besides, the TGI in the experiment on NCI-H23 lung, in the experiment with NCI-H460 lung, in the experiment with RPMI-8226 leukemia, with SF-539 CNS, with TK-10 renal and in the experiment on UACC-257 melanoma was more than 322 µM throughout. This molecule also displayed a TGI in the experiment with UACC-62 melanoma of more than 322 µM.

For `COc1c(F)c(F)c(/C(O)=C\c2nc3ccccc3[nH]c2=O)c(F)c1F`, the TGI in the experiment on COLO 205 colon, with DU-145 prostate, in the experiment on EKVX NSCLC, in the experiment with HCC-2998 colon, in the experiment on IGROV1 ovarian and with K-562 leukemia was more than 10 µM throughout. The TGI was more than 10 µM with NCI-H23 lung; more than 10 µM with RPMI-8226 leukemia; 6.01 µM in the experiment with SNB-75 CNS; more than 10 µM with TK-10 renal; more than 10 µM in the experiment on UACC-257 melanoma; more than 10 µM in the experiment with UACC-62 melanoma.

Take `CCCCCCCOc1ccc(/C=C\c2cc[n+](CCCCCCCC[n+]3ccc(/C=C\c4ccc(OCCCCCCC)cc4)cc3)cc2)cc1`: the TGI was 58.7 µM with COLO 205 colon; more than 100 µM in the experiment with EKVX NSCLC; 33.3 µM in the experiment on IGROV1 ovarian; more than 100 µM in the experiment with NCI-H23 lung; 17 µM in the experiment with NCI-H460 lung; more than 100 µM in the experiment on RPMI-8226 leukemia. Besides, the TGI in the experiment on SF-539 CNS was more than 100 µM; in the experiment on SNB-75 CNS it was more than 100 µM; in the experiment with TK-10 renal it was 43.7 µM; with UACC-257 melanoma it was more than 100 µM; in the experiment with UACC-62 melanoma, more than 100 µM; in the experiment on UO-31 renal, 41.2 µM.

Turning to `CC(=O)CN(Cc1cc(C)c2c(c1)c1ccccc1n2Cc1ccccc1)S(=O)(=O)c1ccc(C)cc1`, the TGI in the experiment with COLO 205 colon, in the experiment on EKVX NSCLC, in the experiment with HCC-2998 colon, in the experiment with IGROV1 ovarian, in the experiment with K-562 leukemia and with NCI-H226 lung was more than 100 µM throughout. The TGI in the experiment on NCI-H23 lung, in the experiment with RPMI-8226 leukemia, with SF-539 CNS, in the experiment with SNB-75 CNS, with TK-10 renal and in the experiment on UACC-257 melanoma was more than 100 µM in each case. Further, the TGI in the experiment on UACC-62 melanoma and with UO-31 renal was more than 100 µM each time.

Take `CS(=O)(=O)c1ccc(-c2cc(-c3ccc(S(C)(=O)=O)cc3)[n+](-c3cc(-c4ccc(S(C)(=O)=O)cc4)c([O-])c(-c4ccc(S(C)(=O)=O)cc4)c3)c(-c3ccc(S(C)(=O)=O)cc3)c2)cc1`: the TGI in the experiment on COLO 205 colon, in the experiment on HCC-2998 colon, with IGROV1 ovarian, with K-562 leukemia, with NCI-H226 lung and in the experiment with NCI-H23 lung was more than 100 µM in each case. Also, the TGI with NCI-H460 lung, in the experiment with RPMI-8226 leukemia, with SF-539 CNS, in the experiment on SNB-75 CNS, with TK-10 renal and with UACC-257 melanoma was more than 100 µM in each case. The TGI in the experiment with UACC-62 melanoma and with UO-31 renal was more than 100 µM throughout.
